Series [1] is described as follows: Preclinical oral bioavailability and urinary excretion of 4-OH-Ile in PROMILIN
The settings on record: rats. In kind it is in vivo, rat. As for the experimental part: In addition to the human clinical portion of the study, preclinical trials were conducted in rats to assess if the 4-OH-Ile in PROMILIN™ is orally bioavailable to rats and if it is excreted in their urine.

The subject of series [2] is pancreatic beta cell. To be noted: major isomer (2S,3R,4S), micromolar concentrations, glucose dependent; cited from earlier work.

The structures appear in SMILES notation.

For `CC(O)C(C)C(N)C(=O)O` (racemic) [4-OH-Ile, 4-hydroxyisoleucine], the oral bioavailability entry in series [1] (4-OH-Ile in PROMILIN, oral) is on record as “bioavailable”. For the same compound, the “time to absorption from the gut into the circulation” value in series [1] (both diastereomers, after oral gavage of PROMILIN) was no more than 15 min. Also, the urinary excretion entry in series [1] (both isomers) is listed as “excreted in the urine”. Also, the “appearance of 4-OH-Ile in the circulation” value in series [1] (coadministration of glucose and PROMILIN) is listed as “slowed the appearance”. The glucose-induced insulin secretion result in series [2] is “stimulate glucose-induced insulin secretion”.

Source of the values: patent publication US20090076111A1, “Methods for improving glycemic control in humans” (priority 2004, published 2009).
